Measurements published in BindingDB's records for doi:10.1016/s0960-894x(02)00934-4 (Southern Research Institute, 2003).

Experiment: Antagonist activity on agonist stimulated [35S]GTP-gamma-S, binding in guinea pig caudate membranes (10 uM SNC-80 as the agonist ligand for delta-receptor)

Oc1ccc2c3c1O[C@H]1c4ncc(-n5cccc5)cc4C[C@@]4(O)[C@@H](C2)N(CC2CC2)CC[C@]314 [19-cyclopropylmethyl-6-(1H-1-pyrrolyl)-11-oxa-8,19-diazahexacyclo[10.9.1.01,10.02,18.04,9.016,22]docosa-4(9),5,7,12,14,16(22)-hexaene-2,13-diol] gave a Ki of 0.4 nM.
Compound NC(N)=Nc1cnc2c(c1)C[C@@]1(O)[C@H]3Cc4ccc(O)c5c4[C@@]1(CCN3CC1CC1)[C@H]2O5 [6-amino(imino)methylamino-19-cyclopropylmethyl-11-oxa-8,19-diazahexacyclo[10.9.1.01,10.02,18.04,9.016,22]docosa-4(9),5,7,12,14,16(22)-hexaene-2,13-diol; ditrifluoracetic acid] has a Ki of 6.5 nM.
